Laboratory results reported in ChEMBL document CHEMBL1134213, “Synthesis and SAR of benzamidine factor Xa inhibitors containing a vicinally-substituted heterocyclic core” (Bioorg Med Chem Lett, 2001).

What was measured:
Oryctolagus cuniculus = species on record: Oryctolagus cuniculus; test: Antithrombotic efficacy was determined in a rabbit (A-V) shunt model; assay type: functional
Trypsin = Trypsin (Homo sapiens, UniProt P07477+P07478+P35030); test: Binding affinity towards human trypsin; assay type: protein assay
Prothrombin = Prothrombin (Homo sapiens, UniProt P00734); test: Binding affinity towards human thrombin
Coagulation factor X [1] = molecular target: Coagulation factor X (Homo sapiens, UniProt P00742); test: Binding affinity towards human Serine protease FXa
Chain of Coagulation factor X (Homo sapiens, UniProt P00742) (P00742 41-179 limits assumed): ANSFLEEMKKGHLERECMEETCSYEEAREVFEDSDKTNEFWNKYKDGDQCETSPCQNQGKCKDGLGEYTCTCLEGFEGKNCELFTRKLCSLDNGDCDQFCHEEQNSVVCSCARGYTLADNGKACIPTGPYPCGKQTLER
Chain of Coagulation factor X (Homo sapiens, UniProt P00742) (P00742 235-488 limits assumed): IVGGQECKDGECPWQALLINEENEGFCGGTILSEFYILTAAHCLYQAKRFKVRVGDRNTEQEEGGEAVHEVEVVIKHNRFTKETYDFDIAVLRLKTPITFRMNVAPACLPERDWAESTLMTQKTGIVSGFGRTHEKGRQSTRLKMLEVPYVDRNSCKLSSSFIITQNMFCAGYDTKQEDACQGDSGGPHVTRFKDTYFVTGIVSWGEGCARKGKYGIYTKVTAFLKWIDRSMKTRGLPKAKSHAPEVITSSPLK

Coagulation factor X [2] = molecular target: T1, Coagulation factor X (Oryctolagus cuniculus, UniProt O19045); test: Binding affinity towards Rabbit Coagulation factor X in a rabbit arterio-venous (A-V) shunt model
T1 sequence (O19045 whole entry): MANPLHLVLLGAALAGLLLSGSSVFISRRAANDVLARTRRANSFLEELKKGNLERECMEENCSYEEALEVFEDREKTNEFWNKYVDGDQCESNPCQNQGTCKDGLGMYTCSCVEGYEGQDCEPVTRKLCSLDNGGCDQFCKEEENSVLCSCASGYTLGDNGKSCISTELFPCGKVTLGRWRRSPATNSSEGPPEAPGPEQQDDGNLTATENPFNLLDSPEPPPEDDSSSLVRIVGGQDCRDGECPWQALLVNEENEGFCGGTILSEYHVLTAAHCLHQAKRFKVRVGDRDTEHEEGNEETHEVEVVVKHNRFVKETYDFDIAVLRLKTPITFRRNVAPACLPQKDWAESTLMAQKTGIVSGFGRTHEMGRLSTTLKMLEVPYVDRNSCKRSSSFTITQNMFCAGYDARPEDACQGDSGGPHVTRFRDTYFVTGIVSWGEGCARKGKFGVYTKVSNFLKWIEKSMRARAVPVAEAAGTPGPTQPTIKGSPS

| Ki (Trypsin) | Ki (Prothrombin) | Ki (Coagulation factor X [1]) | Ki (Coagulation factor X [2]) | Compound | ID50 (Oryctolagus cuniculus) |
| --- | --- | --- | --- | --- | --- |
| 6.4 nM | 300 nM | 0.037 nM | – | N=C(N)c1cccc(-n2nnnc2C(=O)Nc2ccc(-c3ccccc3S(N)(=O)=O)cc2)c1.O=C(O)C(F)(F)F | 0.13 µM/h/kg |
| 190 nM | 3600 nM | 0.4 nM | – | Cc1nc(-c2cccc(C(=N)N)c2)c(C(=O)Nc2ccc(-c3ccccc3S(N)(=O)=O)cc2)o1.O=C(O)C(F)(F)F | – |
| 21 nM | – | – | – | N=C(N)c1cccc(-c2nocc2C(=O)Nc2ccc(-c3ccccc3S(N)(=O)=O)cc2)c1.O=C(O)C(F)(F)F | 0.31 µM/h/kg |
| 390 nM | 6000 nM | 2.3 nM | – | N=C(N)c1cccc(-c2[nH]c(O)nc2C(=O)Nc2ccc(-c3ccccc3S(N)(=O)=O)cc2)c1.O=C(O)C(F)(F)F | – |
| 1100 nM | > 21000 nM | 6 nM | – | Cc1nc(C(=O)Nc2ccc(-c3ccccc3S(N)(=O)=O)cc2)c(-c2cccc(C(=N)N)c2)[nH]1.O=C(O)C(F)(F)F | – |
| 26 nM | 800 nM | 0.33 nM | – | N=C(N)c1cccc(-n2ccnc2C(=O)Nc2ccc(-c3ccccc3S(N)(=O)=O)cc2)c1.O=C(O)C(F)(F)F | – |
| 97 nM | > 6300 nM | 0.82 nM | – | N=C(N)c1cccc(-c2ncsc2C(=O)Nc2ccc(-c3ccccc3S(N)(=O)=O)cc2)c1.O=C(O)C(F)(F)F | – |
| – | – | – | – | Cc1cc(C(=O)Nc2ccc(-c3ccccc3S(N)(=O)=O)cc2)n(-c2cccc(C(=N)N)c2)n1.O=C(O)C(F)(F)F | 0.023 µM/h/kg |
| 56 nM | – | – | – | N=C(N)c1cccc(-n2cccc2C(=O)Nc2ccc(-c3ccccc3S(N)(=O)=O)cc2)c1 | – |
| 261 nM | 3300 nM | 2.5 nM | – | N=C(N)c1cccc(-c2ocnc2C(=O)Nc2ccc(-c3ccccc3S(N)(=O)=O)cc2)c1.O=C(O)C(F)(F)F | 0.54 µM/h/kg |
| 260 nM | 15400 nM | 1 nM | – | N=C(N)c1cccc(-c2ncccc2C(=O)Nc2ccc(-c3ccccc3S(N)(=O)=O)cc2)c1.O=C(O)C(F)(F)F | – |
| 60 nM | 1250 nM | 0.06 nM | 0.08 nM | Cc1nc(-c2cccc(C(=N)N)c2)c(C(=O)Nc2ccc(-c3ccccc3S(N)(=O)=O)cc2)s1.O=C(O)C(F)(F)F | 0.5 µM/h/kg |
| 3.4 nM | 300 nM | 0.023 nM | – | N=C(N)c1cccc(-n2nncc2C(=O)Nc2ccc(-c3ccccc3S(N)(=O)=O)cc2)c1.O=C(O)C(F)(F)F | – |
| 27 nM | 600 nM | 0.3 nM | – | Cc1cn(-c2cccc(C(=N)N)c2)c(C(=O)Nc2ccc(-c3ccccc3S(N)(=O)=O)cc2)n1.O=C(O)C(F)(F)F | – |
| 15 nM | – | – | – | N=C(N)c1cccc(-n2nccc2C(=O)Nc2ccc(-c3ccccc3S(N)(=O)=O)cc2)c1 | – |
| 58 nM | 3200 nM | 1.1 nM | – | N=C(N)c1cccc(-n2cncc2C(=O)Nc2ccc(-c3ccccc3S(N)(=O)=O)cc2)c1.O=C(O)C(F)(F)F | – |
| 220 nM | 2640 nM | 0.2 nM | – | Cn1cc(C(=O)Nc2ccc(-c3ccccc3S(N)(=O)=O)cc2)c(-c2cccc(C(=N)N)c2)n1.O=C(O)C(F)(F)F | – |
| 780 nM | > 6300 nM | 8.2 nM | – | N=C(N)c1cccc(-c2ccccc2C(=O)Nc2ccc(-c3ccccc3S(N)(=O)=O)cc2)c1.O=C(O)C(F)(F)F | – |
